Test results published in patent publication US9636377B2, “Compositions and methods for the treatment of retinal degeneration” (UNIVERSITE DE STRASBOURG, priority 2012, dated 2017).
*: point of attachment. Cbz = O=C(OCc1ccccc1)*; CH2F = FC*

Columns and labels:
[1] = system: Bbs12 depleted retinal explants (photoreceptor apoptosis, ONL); experiment: TUNEL assay, apoptotic rate of photoreceptors in shRNA-treated retinal explants; type: cell-based, mouse; conditions: for apoptotic rate (proportion of apoptotic photoreceptor nucleus): shBbs12 explants, single treatments 2 mM VPA, 25 μM GBZ, 10 μM INH, 33% without treatment
Experimental: (§1) Wild-type animals were on a C57BL/6 background. The retinal explant culture procedure was carried out as previously described (Reidel et al., 2006). Briefly, 15-day-old mice were sacrificed by decapitation and eyes were removed and incubated in trypsin (catalog #25200-072, Gibco, Invitrogen, Paris, France) for 10 min at 37° C. Digestion was stopped by transferring eyes in DMEM+10% fetal bovine serum (catalog #31885-023 and 10500-064, Gibco) and incubation for 10 min at 4° C. Eyes were dissected in Ame's medium (catalog#15230-097, Gibco) supplemented with 6.5 g/L glucose. First, the sclera was carefully removed, leaving the retinal pigmented epithelium (RPE) attached to the eyeball. Incisions were made at the edge of the cornea to remove the cornea, lens and hyaloid body. Then four radial incisions were made in the retina to obtain a cross shape. Retinas were transferred on a nitrocellulose culture membrane (catalog # PICMORG50, Millipore, Molsheim, France) with RPE side down and cultivated in Neurobasal A medium (catalog #108888-022, Gibco) supplemented with B27 supplement (catalog #17504-044, Gibco), L-glutamine (catalog #35050-061, Gibco) and penicillin/streptomycin (catalog #15240; Gibco). Explants were maintained at 37° C. humidified 5% CO2. Specific gene silencing using lentiviruses carrying shRNA sequences for Bbs12, Perk, Hri or Rhodopsin (Santa Cruz Biotechnology, Tebu Bio, Yvelines, France) were performed by adding 20 μl of viral suspension (1×10^5 infectious units) in the culture medium overnight before whole medium change. The infected explants were then cultured for 3 days with a half medium change on a daily basis. Explants were not maintained longer in culture to avoid unspecific apoptosis in the different retinal layers. […] Drugs were added simultaneously with viral infection to the culture medium.
For immunofluorescence experiments and TUNEL assay retinal explants were fixed directly on membranes with Formalin 10% for 1 hour at 4° C. Sucrose impregnation was then performed using 10%, 20% and 30% sucrose baths, 20 min each. Explants were transferred to OCT (catalog #4583, Tissue-Tek, Sakura, Villeneuve d′Ascq, France) in mold and frozen in liquid nitrogen. 8 μm thin cryosections were mounted on StarFrost slides (catalog # VS1117, Waldemar Knittel Glasbearbeitungs, Braunschweig, Germany).
Sections or cells were washed with PBS 1× and shortly fixated with Formalin 10% solution for 5 minutes and washed three times with PBS 1×. […] The prevalence of apoptotic nuclei was expressed as the ratio of TUNEL-positive nuclei and DAPI-stained nuclei in three different areas of the ONL per experiment. […]

[2] = system: eIF2α phosphorylation and BiP; experiment: Western blot of phosphorylated eIF2α and BiP in retinas of treated Bbs12−/− mice; type: in vivo, mouse
Experimental: The Bbs12^-/- mice were generated as previously described. Bbs12^-/- mice were obtained by crossing heterozygote animals. Mice were housed in humidity and temperature controlled rooms on a 12-hour light/12-hour dark cycle with food ad libitum and water. For anti-apoptotic treatments, animals were treated with eye drops from 2 to 4 weeks of age once a day; the eye drops contain GBZ 7.5 μM and Caspase Inhibitor 500 μM for the left eye and contain 5% DMSO for the right eye. […] Eye drop treatment was achieved from 2 to 4 weeks of age and systemic treatments were achieved from 3 to 4 weeks of age. At 4 weeks of age, electrophysiological analyses were performed and the retinas were harvested for molecular analysis. […] After retina dissociation using dounce homogenizer, samples were sonicated and protein concentration was determined using Bradford reagent (catalog #500-0006, BioRad). For Western blotting, 80 μg of whole protein extracts were loaded per lane and Ponceau S staining was used as loading control for signal quantification. […] Signal quantification was assed using QuantityOne software from BioRad.

[3] = system: Bbs12−/− mouse retina; experiment: Scotopic electroretinogram of treated Bbs12−/− mice; type: in vivo; conditions: 4 weeks of age; for scotopic ERG recording: systemic VPA 5 mg/mL, systemic GBZ 50 μM, or GIV (eye drops GBZ 7.5 μM + INH 500 μM, systemic VPA)
Experimental: The Bbs12^−/− mice were generated as previously described. Bbs12^−/− mice were obtained by crossing heterozygote animals. Mice were housed in humidity and temperature controlled rooms on a 12-hour light/12-hour dark cycle with food ad libitum and water. For anti-apoptotic treatments, animals were treated with eye drops from 2 to 4 weeks of age once a day; the eye drops contain GBZ 7.5 μM and Caspase Inhibitor 500 μM for the left eye and contain 5% DMSO for the right eye. […] Eye drop treatment was achieved from 2 to 4 weeks of age and systemic treatments were achieved from 3 to 4 weeks of age. At 4 weeks of age, electrophysiological analyses were performed and the retinas were harvested for molecular analysis.
Mice were dark adapted for 12 hours before recording. Those experiments were performed under dim red light. The mice were anesthetized with the same anesthesia mix described in the section above. The pupils were dilated with eye drops of atropine 0.3% (catalog # Atropine Alcon 0.3%, Alcon, Rueil-Malmaison, France). Animals were placed on a controlled heating pad and maintained at 37° C. during the procedure. The reference electrode was placed under the head skin and the background electrode was inserted in the tail of the animal. The measuring electrode was placed on the cornea, to optimize contact between the cornea and the gold electrode, and a drop of methylcellulose gel (catalog # Ocry-gel, TVM Laboratories, Lempdes, France) was added. Flashes were delivered though a Ganzfeld equipped with light-emitting diodes with maximum output of 318 cd/m^2 (Siem Biomédicale, Nimes, France). For the scotopic ERG, the flash duration varied from 3 to 5 ms with final flash output ranging from 0.001 to 1 cd*s/m^2. Responses were amplified, filtered (1-300-Hz band pass), and digitized (Visiosystem; Siem Biomédicale). The a and b waves were measured by using a 1-75-Hz band pass to filter oscillatory potentials.

[4] = system: peIF2α, CHOP10 and BiP; experiment: Western blot of UPR proteins in retinal explants; type: cell-based, mouse; conditions: shRNA-treated retinal explants
Experimental: as §1
Proteins were obtained by lysis in RIPA buffer (150 mM NaCl, 50 mM TrisHCl pH 8, 0.1% Tween20, catalog # P7653, T3253, 93773, Sigma-Aldrich) supplemented with Protease Inhibitors Complete Mini EDTA-free (catalog #11836 170001, Roche, Boullogne-Billancourt, France), 1 mM NaVO4 and 25 mM NaF (catalog # S6508 and S7920, Sigma-Aldrich). After retina dissociation using dounce homogenizer, samples were sonicated and protein concentration was determined using Bradford reagent (catalog #500-0006, BioRad). For Western blotting, 80 μg of whole protein extracts were loaded per lane and Ponceau S staining was used as loading control for signal quantification. Antibody binding was visualized using SuperSignal West Femto Maximum Sensitivity Substrate (catalog #34095, ThermoFisher) on a Versadoc apparitus, BioRad. Signal quantification was assed using QuantityOne software from BioRad.

[5] = system: Bip, Chop10 and Caspase12 mRNA; experiment: mRNA expression of ER stress genes in retinal explants (quantitative PCR); type: cell-based, mouse
Experimental: as §1
Total RNA was extracted with Trizol (catalog #15596-018, Invitrogen). […] was DNAse treated using TURBO DNA-free Kit (catalog # AM1907, Applied Biosystems, Villebon-sur-Yvette, France) and then reverse transcribed using the iScript cDNA synthesis kit (catalog #170-8891, BioRad, Marne-la-coquette, France). Primers (listed in supplementary methods) were purchased from Qiagen, Courtaboeuf, France. Quantitative PCR were performed using SYBR Green PCR Mix (catalog #4367659, Applied Biosystems) on a BioRad CFX96 system. mRNA expressions were expressed as relative to Gapdh RNA content, using BioRad CFX manager software. For endoplasmic reticulum stress arrays, Custom TaqMan Array 96 was purchased for Applied Biosystems; all tested genes are listed in supplementary methods.

[6] = system: Bbs12−/− mouse retina; experiment: Retinal histology (ONL thickness, cilia) of treated Bbs12−/− mice; type: in vivo; conditions: for ONL layer thickness: 4 weeks of age, 37 μm for untreated retinas
Experimental: The Bbs12^−/− mice were generated as previously described. Bbs12^−/− mice were obtained by crossing heterozygote animals. Mice were housed in humidity and temperature controlled rooms on a 12-hour light/12-hour dark cycle with food ad libitum and water. For anti-apoptotic treatments, animals were treated with eye drops from 2 to 4 weeks of age once a day; the eye drops contain GBZ 7.5 μM and Caspase Inhibitor 500 μM for the left eye and contain 5% DMSO for the right eye. […] Eye drop treatment was achieved from 2 to 4 weeks of age and systemic treatments were achieved from 3 to 4 weeks of age. At 4 weeks of age, electrophysiological analyses were performed and the retinas were harvested for molecular analysis. Sections or cells were washed with PBS 1× and shortly fixated with Formalin 10% solution for 5 minutes and washed three times with PBS 1×. The sections were then pre-incubated with Teng-T (10 mM TrisHCl (pH=7.6), 5 mM EDTA (catalog # E5768, Sigma-Aldrich), 150 mM NaCl, 0.25% gelatin (catalog # G9391, Sigma-Aldrich), 0.05% Tween-20)/10% normal goat serum (catalog #PCN5000, Gibco) for 30 min, followed by an overnight incubation with the primary antibody diluted in Teng-T/10% NGS at 4° C. Slides were then washed with PBS 1× and incubated with the indicated secondary antibody in Teng-T/10% NGS for 1 hour at room temperature. Slides were washed in PBS 1× and nuclear staining was performed with DAPI (catalog # D1306, Invitrogen). Slides were mounted with Immumount (catalog #9990402, ThermoFisher). TUNEL assays were performed using In Situ Cell Death Detection Kit (catalog #11684795910, Roche) according to suppliers' protocol. The prevalence of apoptotic nuclei was expressed as the ratio of TUNEL-positive nuclei and DAPI-stained nuclei in three different areas of the ONL per experiment. All results shown are representative of at least 3 separate experiments.

[7] = system: RP patients; conditions: RP patients treated for 2 or 4 months; cited from earlier work
[8] = system: rat retina; conditions: ischemia-reperfusion injury, systemic administration; cited from earlier work
[9] = system: Bbs1M390R/M390R mice; conditions: cited from earlier work
[10] = control conditions (shCtl explants)

Molecule	apoptotic rate (proportion of apoptotic photoreceptor nucleus) [1] [%]	a wave amplitude, scotopic ERG [3]	b wave amplitude, scotopic ERG [3]	scotopic ERG recording [3]	CHOP10 protein content [4]	eIF2α phosphorylation (peIF2α), protein level [4]	Bip mRNA expression ([5]; after Bbs12 depletion)	Caspase12 mRNA expression ([5]; after Bbs12 depletion)	Chop10 mRNA expression ([5]; after Bbs12 depletion)	protective effect on photoreceptors, overall in vivo (electrophysiological and histological analysis) [6]	ONL layer thickness [6] [μm]	other results
N=C(N)N/N=C/c1c(Cl)cccc1Cl [GBZ, guanabenz]	12	significantly increased	significantly increased	clear amelioration	increase	maintained in a phosphorylated status	decreased	decreased	decreased	efficient to reduce photoreceptor apoptosis	45	phosphorylated status of eIF2α [2]: increased
CCCC(CCC)C(=O)O [VPA, valproic acid]	17	significantly increased	higher	clear amelioration	decreased	decreased	lower	lower	lower	efficient to reduce photoreceptor apoptosis	44	apoptotic rate ([1]; shCtl explants, 2 mM VPA, TUNEL-positive nuclei/DAPI in ONL): 13%; BiP protein level [2]: increased; visual field [7]: increase of visual field in 5 to 7 patients; BiP protein content [4]: increased; Bip mRNA expression [5, 10]: twofold increase; Caspase12 mRNA expression [5, 10]: not significantly changed; Chop10 mRNA expression [5, 10]: not significantly changed; BiP expression [8]: increased; caspase-12 activation [8]: reduced
C[C@H](CCC(=O)NCCS(=O)(=O)O)[C@H]1CC[C@H]2[C@@H]3[C@@H](O)C[C@@H]4C[C@H](O)CC[C@]4(C)[C@H]3CC[C@]12C [TUDCA, tauroursodeoxycholic acid]												retinal thickness [9]: induced retinal thickening
Z-Ala-Thr-Ala-Asp(O-methyl)-fluoromethyl-ketone (Cbz-ATAD(OMe)-CH2F; SMILES COC(=O)C[C@H](NC(=O)[C@H](C)NC(=O)[C@@H](NC(=O)[C@H](C)NC(=O)OCc1ccccc1)[C@@H](C)O)C(=O)CF) [INH, Promokine]	23				decrease	decrease						
